This passage reports glass transition temperature results from the PolyMetriX glass transition set.

In turn, `*/C=C(/*)C(CCC)[Si](C)(C)CCCCCC` (repeat unit) yielded a glass transition temperature of 40.00 °C.
In the case of `*CCCCCCCCCCCCOc1ccc(C(C)Cc2ccc(-c3ccc(O*)cc3)cc2)cc1` (repeat unit) it was 40.00 °C.
Regarding `*CCCCCCCCNC(=O)Cc1ccc(CC(=O)N*)cc1` (repeat unit), the glass transition temperature was 110.00 °C.
For the compound `*CCCCCCNC(=O)Cc1ccc(C(=O)N*)cc1` (repeat unit), the glass transition temperature amounted to 104.00 °C.
In the case of `*CCCCCCOC(=O)c1cc(OCCCCCCOc2ccc(/N=N/c3ccc(C#N)cc3)cc2)cc(C(=O)OCCCCCCn2c(=O)c3cc4c(=O)n(*)c(=O)c4cc3c2=O)c1` (repeat unit) it was 46.00 °C; in that of `*CCCNC(=O)Cc1ccc(C(=O)N*)cc1` (repeat unit), 109.00 °C.
The compound `*CCN(CCOC(=O)c1cc(OCCN(C)c2ccc(S(=O)(=O)CCCCCCCC)cc2)cc(C(=O)O*)c1)c1ccc(S(=O)(=O)C(F)(F)C(F)(F)C(F)(F)C(F)(F)C(F)(F)C(F)(F)C(F)(F)C(F)(F)F)cc1` (repeat unit) came in with a glass transition temperature of 80.00 °C.
In the case of `*CCN(CCOC(=O)c1ccc(C(=O)O*)c(OCCC)c1)c1ccc(/N=N/c2ccc(-c3nc4cc([N+](=O)[O-])ccc4[nH]3)cc2)cc1` (repeat unit) it was 152.00 °C; in that of `*CCN(CCOC(=O)c1ccc(C(=O)O*)c(OCCC)c1)c1ccc(/N=N/c2ccc(-c3nc4ccccc4o3)cc2)cc1` (repeat unit), 117.00 °C.
In the case of `*CCN(CCOC(=O)c1ccc(C(=O)O*)c(OCCC)c1)c1ccc(/N=N/c2nc(C#N)c(C#N)[nH]2)cc1` (repeat unit) it was 152.00 °C; in that of `*CCOC(=O)Cc1ccc(C(=O)O*)cc1` (repeat unit), 24.00 °C; in that of `*Cc1cc2cc(C(=O)Nc3ccc(Oc4ccc(NC(=O)c5cc6cc(*)c(OC(=O)COc7ccc8ccc(=O)oc8c7)cc6oc5=O)cc4)cc3)c(=O)oc2cc1OC(=O)COc1ccc2ccc(=O)oc2c1` (repeat unit), 226.00 °C.
In the case of `*Cc1ccc(COC(=O)Cc2ccc(C(=O)O*)cc2)cc1` (repeat unit) it was 47.00 °C; in that of `*Cc1ccccc1CN(CC)c1ccc(/C=C(\C#N)C(=O)Nc2cccc(NC(=O)/C(C#N)=C/c3ccc(N(*)CC)cc3)c2)cc1` (repeat unit), 188.00 °C.
`*Cc1ccccc1C[Si](*)(C)C` (repeat unit) came in with a glass transition temperature of 75.00 °C.
With `*N(CCC)[Si](C)(C)C[Si](*)(C)C` (repeat unit), the glass transition temperature is -20.00 °C.
In the case of `*Nc1ccc(CC(C)(C)NC(=O)CCCCC(*)=O)cc1` (repeat unit) it was 130.00 °C.
As to `*Nc1ccc(CC(C)(C)NC(=O)c2ccc(C(*)=O)cc2)cc1` (repeat unit), the glass transition temperature was 175.00 °C.
In the case of `*OC(=O)Cc1ccc(CC(*)=O)cc1` (repeat unit) it was 65.00 °C.
In the case of `*Oc1ccc(CC(*)=O)cc1` (repeat unit) it was 117.00 °C; in that of `*Oc1ccc(CC(NC(=O)CCc2ccc(OC(*)=O)cc2)C(=O)OCC)cc1` (repeat unit), 96.00 °C.
Regarding `*Oc1ccc(CC(NC(=O)CCc2ccc(OC(*)=O)cc2)C(=O)OCCCC)cc1` (repeat unit), the glass transition temperature was found to be 67.00 °C.
In the case of `*Oc1ccc(CC(NC(=O)CCc2ccc(OC(*)=O)cc2)C(=O)OCCCCCC)cc1` (repeat unit) it was 51.50 °C.
In the case of `*Oc1ccc(CC(NC(=O)CCc2ccc(OC(=O)CC(C)CCC(*)=O)cc2)C(=O)OC(C)CC)cc1` (repeat unit) it was 45.00 °C.
In the case of `*Oc1ccc(CC(NC(=O)CCc2ccc(OC(=O)CC(C)CCC(*)=O)cc2)C(=O)OCCCC)cc1` (repeat unit), the glass transition temperature was found to be 35.00 °C.
In the case of `*Oc1ccc(CC(NC(=O)CCc2ccc(OC(=O)CCC(*)=O)cc2)C(=O)OC(C)C)cc1` (repeat unit) it was 82.00 °C; in that of `*Oc1ccc(CC(NC(=O)CCc2ccc(OC(=O)CCC(*)=O)cc2)C(=O)OC(C)CC)cc1` (repeat unit), 75.00 °C; in that of `*Oc1ccc(CC(NC(=O)CCc2ccc(OC(=O)CCC(C)CC(*)=O)cc2)C(=O)OC)cc1` (repeat unit), 53.00 °C.
`*Oc1ccc(CC(NC(=O)CCc2ccc(OC(=O)CCCC(*)=O)cc2)C(=O)OC(C)C)cc1` (repeat unit) came in with a glass transition temperature of 68.00 °C.
In the case of `*Oc1ccc(CC(NC(=O)CCc2ccc(OC(=O)CCCC(*)=O)cc2)C(=O)OC)cc1` (repeat unit) it was 76.00 °C.
In the case of `*Oc1ccc(CC(NC(=O)CCc2ccc(OC(=O)CCCC(*)=O)cc2)C(=O)OCC(C)C)cc1` (repeat unit) it was 62.00 °C; in that of `*Oc1ccc(CC(NC(=O)CCc2ccc(OC(=O)CCCC(*)=O)cc2)C(=O)OCCCCCCCC)cc1` (repeat unit), 32.50 °C.
In the case of `*Oc1ccc(CC(NC(=O)CCc2ccc(OC(=O)CCCC(*)=O)cc2)C(=O)OCCOCCOCC)cc1` (repeat unit) it was 21.00 °C; in that of `*Oc1ccc(CC(NC(=O)CCc2ccc(OC(=O)CCCCC(*)=O)cc2)C(=O)OC)cc1` (repeat unit), 70.00 °C; in that of `*Oc1ccc(CC(NC(=O)CCc2ccc(OC(=O)CCCCCCC(*)=O)cc2)C(=O)OC(C)CC)cc1` (repeat unit), 46.00 °C.
`*Oc1ccc(CC(NC(=O)CCc2ccc(OC(=O)CCCCCCC(*)=O)cc2)C(=O)OCCCCCC)cc1` (repeat unit) displayed a glass transition temperature of 27.00 °C.
In the case of `*Oc1ccc(CC(NC(=O)CCc2ccc(OC(=O)CCCCCCC(*)=O)cc2)C(=O)OCCCCCCCC)cc1` (repeat unit) it was 22.00 °C; in that of `*Oc1ccc(CC(NC(=O)CCc2ccc(OC(=O)CCCCCCC(*)=O)cc2)C(=O)OCCCCCCCCCCCC)cc1` (repeat unit), 15.00 °C; in that of `*Oc1ccc(CC(NC(=O)CCc2ccc(OC(=O)CCCCCCC(*)=O)cc2)C(=O)OCCOCCOCC)cc1` (repeat unit), 6.00 °C.
In the case of `*Oc1ccc(CC(NC(=O)CCc2ccc(OC(=O)CCCCCCCCC(*)=O)cc2)C(=O)OC(C)C)cc1` (repeat unit) it was 44.00 °C; in that of `*Oc1ccc(CC(NC(=O)CCc2ccc(OC(=O)CCCCCCCCC(*)=O)cc2)C(=O)OCCOCCOCC)cc1` (repeat unit), 2.00 °C; in that of `*Oc1ccc(CC(NC(=O)CCc2ccc(OC(=O)COCCOCC(*)=O)cc2)C(=O)OC(C)CC)cc1` (repeat unit), 44.00 °C.
In the case of `*Oc1ccc(CC(NC(=O)CCc2ccc(OC(=O)COCCOCC(*)=O)cc2)C(=O)OC)cc1` (repeat unit) it was 63.00 °C.
Take `*Oc1ccc(CC(NC(=O)CCc2ccc(OC(=O)COCCOCC(*)=O)cc2)C(=O)OCC(C)C)cc1` (repeat unit): the glass transition temperature worked out at 50.00 °C.
`*Oc1ccc(CC(NC(=O)CCc2ccc(OC(=O)COCCOCC(*)=O)cc2)C(=O)OCC)cc1` (repeat unit) came in with a glass transition temperature of 53.00 °C.
With `*Oc1ccc(CC(NC(=O)CCc2ccc(OC(=O)COCCOCC(*)=O)cc2)C(=O)OCCCCCC)cc1` (repeat unit), the glass transition temperature came to 28.00 °C.
In the case of `*Oc1ccc(CC(NC(=O)CCc2ccc(OC(=O)COCCOCC(*)=O)cc2)C(=O)OCCCCCCCCCCCC)cc1` (repeat unit) it was 17.00 °C.
In the case of `*Oc1ccc(CC(NC(=O)Cc2ccc(OC(=O)CC(C)CCC(*)=O)cc2)C(=O)OCC)cc1` (repeat unit) it was 63.00 °C.
In the case of `*Oc1ccc(CC(NC(=O)Cc2ccc(OC(=O)CCC(*)=O)cc2)C(=O)OCC)cc1` (repeat unit) it was 75.50 °C.
`*Oc1ccc(CC(NC(=O)Cc2ccc(OC(=O)CCCC(*)=O)cc2)C(=O)OCC)cc1` (repeat unit) displayed a glass transition temperature of 65.00 °C.
In the case of `*Oc1ccc(CC(NC(=O)Cc2ccc(OC(=O)CCCCC(*)=O)cc2)C(=O)OCCCCCC)cc1` (repeat unit) it was 36.00 °C; in that of `*Oc1ccc(CC(NC(=O)Cc2ccc(OC(=O)CCCCC(*)=O)cc2)C(=O)OCCCCCCCC)cc1` (repeat unit), 28.00 °C.
In the case of `*Oc1ccc(CC(NC(=O)Cc2ccc(OC(=O)CCCCCCC(*)=O)cc2)C(=O)OCCCCCC)cc1` (repeat unit) it was 27.00 °C; in that of `*Oc1ccc(CC(NC(=O)Cc2ccc(OC(=O)COCC(*)=O)cc2)C(=O)OCC)cc1` (repeat unit), 66.00 °C.
In the case of `*c1ccc(CC(=O)Nc2ccc(Cc3ccc(NC(=O)Cc4ccc(-c5sc(*)c(-c6ccccc6)c5-c5ccccc5)cc4)cc3)cc2)cc1` (repeat unit) it was 227.00 °C; in that of `*c1ccc(CC(=O)Nc2cccc(NC(=O)Cc3ccc(-c4sc(*)c(-c5ccccc5)c4-c4ccccc4)cc3)c2)cc1` (repeat unit), 228.00 °C.
In the case of `*c1ccc(Cc2ccc(-n3c(=O)c4cc5c(=O)n(*)c(=O)c5cc4c3=O)c(C(C)(C)C)c2)cc1C(C)(C)C` (repeat unit), the glass transition temperature is 217.00 °C.
In the case of `*c1ccc(Cc2ccc(N3C(=O)C4CCC5C(=O)N(*)C(=O)C5C4C3=O)c(C)c2)cc1C` (repeat unit) it was 340.00 °C; in that of `*c1ccc(Cc2ccc(N3C(=O)c4ccc(S(=O)(=O)c5ccc6c(c5)C(=O)N(*)C6=O)cc4C3=O)c(C(C)(C)C)c2)cc1C(C)(C)C` (repeat unit), 336.00 °C; in that of `*c1ccc(Cc2ccc(N3C(=O)c4ccc(Sc5ccc6c(c5)C(=O)N(*)C6=O)cc4C3=O)c(C(C)(C)C)c2)cc1C(C)(C)C` (repeat unit), 300.50 °C.
For `*c1ccc2c(c1)C(=O)N(c1ccc(Cc3ccc(N4C(=O)c5ccc(C(*)(C(F)(F)F)C(F)(F)F)cc5C4=O)c(C(C)(C)C)c3)cc1C(C)(C)C)C2=O` (repeat unit), the glass transition temperature worked out at 274.00 °C.
